Reference: patent US9376425B2, “Heterocyclic compounds as MDM2 inhibitors for the treatment of cancer” (AMGEN INC., priority 2011, dated 2016)

Target: T1, human MDM2 (GST-hMDM2 1-188), interaction with biotinylated-p53 (1-83) (Homo sapiens, UniProt Q00987)
T1 construct: Amino acid residues 1-188 of human MDM2 were expressed; made in house; host or cells: Escherichia coli
Assay: improved HTRF assay (HTRF2 assay), inhibition of HDM2-p53 interaction
Assay type: binding
Conditions: 0.2 nM GST-hMDM2, 0.5 nM biotinylated-p53, 100 mM KF
Method: Residues 1-83 of human p53 were expressed as an amino-terminal AviTag™-TrxA-6xHis fusion protein (biotinylated p53) in E. coli. Each protein was purified from cell paste by affinity chromatography.
Specifically, 10 uL of GST-hMDM2 was incubated with 10 ul of diluted compound (various concentrations, serially diluted) in 10% DMSO for 20 minutes at room temperature. 20 uL of biotinylated-p53 was added to the GST-hMDM2+ compound mixture, and then incubated at room temperature for 60 min. 10 uL of detection buffer consisting of SA-XLent, anti-GST cryptate antibody and KF was added to GST-hMDM2, biotinylated-p53 and compound reaction and left at room temperature to reach equilibrium for >4 hrs. The final concentration of DMSO in the reaction was 2%. Time-resolved fluorescence readings were measured on a microplate multilabel reader. Percentage of inhibition was calculated relative to nutlin-3.

T1 sequence (Q00987 1-188): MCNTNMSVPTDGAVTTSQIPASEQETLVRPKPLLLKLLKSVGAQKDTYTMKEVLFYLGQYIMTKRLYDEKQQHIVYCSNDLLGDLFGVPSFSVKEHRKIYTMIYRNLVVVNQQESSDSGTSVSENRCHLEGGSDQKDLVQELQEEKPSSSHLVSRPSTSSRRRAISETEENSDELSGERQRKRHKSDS

With `C=CC[C@@H]1O[C@H](c2cccc(Cl)c2)[C@@H](c2ccc(Cl)cc2)N([C@@H](CC)CN(c2ccccn2)S(=O)(=O)C2CC2)C1=O` (single isomer, unassigned) [Example 179, N-((S)-2-((2S,5R,6R)-2-allyl-6-(3-chlorophenyl)-5-(4-chlorophenyl)-3-oxomorpholino)butyl)-N-(pyridin-2-yl)cyclopropanesulfonamide or N-((S)-2-((2R,5R,6R)-2-allyl-6-(3-chlorophenyl)-5-(4-chlorophenyl)-3-oxomorpholino)butyl)-N-(pyridin-2-yl)cyclopropanesulfonamide] the IC50 was 141 nM.
Compound `CC[C@@H](CN(c1ccccn1)S(=O)(=O)C1CC1)N1C(=O)[C@H](CC(=O)O)O[C@H](c2cccc(Cl)c2)[C@H]1c1ccc(Cl)cc1` (single isomer, unassigned) [Example 180, 2-((2S,5R,6R)-6-(3-chlorophenyl)-5-(4-chlorophenyl)-3-oxo-4-((S)-1-(N-(pyridin-2-yl)cyclopropanesulfonamido)butan-2-yl)morpholin-2-yl)acetic acid or 2-((2R,5R,6R)-6-(3-chlorophenyl)-5-(4-chlorophenyl)-3-oxo-4-((S)-1-(N-(pyridin-2-yl)cyclopropanesulfonamido)butan-2-yl)morpholin-2-yl)acetic acid] has an IC50 of less than 1 nM.
Work on `CC[C@@H](CN(c1ccccn1)S(=O)(=O)C1CC1)N1C(=O)[C@H](CC(=O)O)O[C@H](c2cccc(Cl)c2)[C@H]1c1ccc(Cl)cc1` (single isomer, unassigned) [Example 181, 2-((2S,5R,6R)-6-(3-chlorophenyl)-5-(4-chlorophenyl)-3-oxo-4-((S)-1-(N-(pyridin-2-yl)cyclopropanesulfonamido)butan-2-yl)morpholin-2-yl)acetic acid or 2-((2R,5R,6R)-6-(3-chlorophenyl)-5-(4-chlorophenyl)-3-oxo-4-((S)-1-(N-(pyridin-2-yl)cyclopropanesulfonamido)butan-2-yl)morpholin-2-yl)acetic acid] yielded an IC50 of 1 nM.
For `CC[C@@H](CS(=O)(=O)C(C)(C)C)N1C(=O)[C@@H](CC(=O)O)O[C@H](c2cccc(Cl)c2)[C@H]1c1ccc(Cl)c(F)c1` (single isomer, unassigned) [Example 182, 2-((2R,5R,6R)-4-((S)-1-(tert-butylsulfonyl)butan-2-yl)-5-(4-chloro-3-fluorophenyl)-6-(3-chlorophenyl)-3-oxomorpholin-2-yl)acetic acid or 2-((2S,5R,6R)-4-((S)-1-(tert-butylsulfonyl)butan-2-yl)-5-(4-chloro-3-fluorophenyl)-6-(3-chlorophenyl)-3-oxomorpholin-2-yl)acetic acid], the IC50 was 4 nM.
With `CC[C@@H](CS(=O)(=O)C(C)(C)C)N1C(=O)[C@@H](CC(=O)O)O[C@H](c2cccc(Cl)c2)[C@H]1c1ccc(Cl)c(F)c1` (single isomer, unassigned) [Example 183, 2-((2R,5R,6R)-4-((S)-1-(tert-butylsulfonyl)butan-2-yl)-5-(4-chloro-3-fluorophenyl)-6-(3-chlorophenyl)-3-oxomorpholin-2-yl)acetic acid or 2-((2S,5R,6R)-4-((S)-1-(tert-butylsulfonyl)butan-2-yl)-5-(4-chloro-3-fluorophenyl)-6-(3-chlorophenyl)-3-oxomorpholin-2-yl)acetic acid] the IC50 was 178 nM.
Compound `CC[C@@H](CS(=O)(=O)C1CCOCC1)N1C(=O)[C@@H](CC(=O)O)O[C@H](c2cccc(Cl)c2)[C@H]1c1ccc(Cl)cc1` (single isomer, unassigned) [Example 186, 2-((2R,5R,6R)-6-(3-chlorophenyl)-5-(4-chlorophenyl)-3-oxo-4-((S)-1-((tetrahydro-2H-pyran-4-yl)sulfonyl)butan-2-yl)morpholin-2-yl)acetic acid or 2-((2S,5R,6R)-6-(3-chlorophenyl)-5-(4-chlorophenyl)-3-oxo-4-((S)-1-((tetrahydro-2H-pyran-4-yl)sulfonyl)butan-2-yl)morpholin-2-yl)acetic acid] has an IC50 of 2 nM.
Compound `CC[C@@H](CS(=O)(=O)C1CCOCC1)N1C(=O)[C@@H](CC(=O)O)O[C@H](c2cccc(Cl)c2)[C@H]1c1ccc(Cl)cc1` (single isomer, unassigned) [Example 187, 2-((2R,5R,6R)-6-(3-chlorophenyl)-5-(4-chlorophenyl)-3-oxo-4-((S)-1-((tetrahydro-2H-pyran-4-yl)sulfonyl)butan-2-yl)morpholin-2-yl)acetic acid or 2-((2S,5R,6R)-6-(3-chlorophenyl)-5-(4-chlorophenyl)-3-oxo-4-((S)-1-((tetrahydro-2H-pyran-4-yl)sulfonyl)butan-2-yl)morpholin-2-yl)acetic acid] has an IC50 of 2 nM.
Work on `O=C(O)C[C@H]1O[C@H](c2cccc(Cl)c2)[C@@H](c2ccc(Cl)cc2)N([C@H](CN(c2ncccc2F)S(=O)(=O)C2CC2)C2CC2)C1=O` (single isomer, unassigned) [Example 188, 2-((2R,5R,6R)-6-(3-chlorophenyl)-5-(4-chlorophenyl)-4-((S)-1-cyclopropyl-2-(N-(3-fluoropyridin-2-yl)cyclopropanesulfonamido)ethyl)-3-oxomorpholin-2-yl)acetic acid or 2-((2S,5R,6R)-6-(3-chlorophenyl)-5-(4-chlorophenyl)-4-((S)-1-cyclopropyl-2-(N-(3-fluoropyridin-2-yl)cyclopropanesulfonamido)ethyl)-3-oxomorpholin-2-yl)acetic acid] yielded an IC50 of less than 1 nM.
`O=C(O)C[C@H]1O[C@H](c2cccc(Cl)c2)[C@@H](c2ccc(Cl)cc2)N([C@H](CN(c2ncccc2F)S(=O)(=O)C2CC2)C2CC2)C1=O` (single isomer, unassigned) [Example 189, 2-((2R,5R,6R)-6-(3-chlorophenyl)-5-(4-chlorophenyl)-4-((S)-1-cyclopropyl-2-(N-(3-fluoropyridin-2-yl)cyclopropanesulfonamido)ethyl)-3-oxomorpholin-2-yl)acetic acid or 2-((2S,5R,6R)-6-(3-chlorophenyl)-5-(4-chlorophenyl)-4-((S)-1-cyclopropyl-2-(N-(3-fluoropyridin-2-yl)cyclopropanesulfonamido)ethyl)-3-oxomorpholin-2-yl)acetic acid] gave an IC50 of less than 1 nM.
`CC[C@@H](CS(=O)(=O)CC1CC1)N1C(=O)[C@@H](CC(=O)O)O[C@H](c2cccc(Cl)c2)[C@H]1c1ccc(Cl)cc1` (single isomer, unassigned) [Example 190, 2-((2R,5R,6R)-6-(3-chlorophenyl)-5-(4-chlorophenyl)-4-((S)-1-((cyclopropylmethyl)sulfonyl)butan-2-yl)-3-oxomorpholin-2-yl)acetic acid or 2-((2S,5R,6R)-6-(3-chlorophenyl)-5-(4-chlorophenyl)-4-((S)-1-((cyclopropylmethyl)sulfonyl)butan-2-yl)-3-oxomorpholin-2-yl)acetic acid] gave an IC50 of 3 nM.
For `CC[C@@H](CS(=O)(=O)CC1CC1)N1C(=O)[C@@H](CC(=O)O)O[C@H](c2cccc(Cl)c2)[C@H]1c1ccc(Cl)cc1` (single isomer, unassigned) [Example 191, 2-((2R,5R,6R)-6-(3-chlorophenyl)-5-(4-chlorophenyl)-4-((S)-1-((cyclopropylmethyl)sulfonyl)butan-2-yl)-3-oxomorpholin-2-yl)acetic acid or 2-((2S,5R,6R)-6-(3-chlorophenyl)-5-(4-chlorophenyl)-4-((S)-1-((cyclopropylmethyl)sulfonyl)butan-2-yl)-3-oxomorpholin-2-yl)acetic acid], the IC50 was 5 nM.
With `CC(C)[C@@H](CN(c1ccccc1)S(=O)(=O)C1CC1)N1C(=O)[C@@H](CC(=O)O)O[C@H](c2cccc(Cl)c2)[C@H]1c1ccc(Cl)cc1` (single isomer, unassigned) [Example 192, 2-((2R,5R,6R)-6-(3-chlorophenyl)-5-(4-chlorophenyl)-4-((S)-3-methyl-1-(N-phenylcyclopropanesulfonamido)butan-2-yl)-3-oxomorpholin-2-yl)acetic acid or 2-((2S,5R,6R)-6-(3-chlorophenyl)-5-(4-chlorophenyl)-4-((S)-3-methyl-1-(N-phenylcyclopropanesulfonamido)butan-2-yl)-3-oxomorpholin-2-yl)acetic acid] the IC50 was 1 nM.
For `CC(C)[C@H](CN(c1ccccc1)S(=O)(=O)C1CC1)N1C(=O)[C@@H](CC(=O)O)O[C@H](c2cccc(Cl)c2)[C@H]1c1ccc(Cl)cc1` (single isomer, unassigned) [Example 193, 2-((2R,5R,6R)-6-(3-chlorophenyl)-5-(4-chlorophenyl)-4-((R)-3-methyl-1-(N-phenylcyclopropanesulfonamido)butan-2-yl)-3-oxomorpholin-2-yl)acetic acid or 2-((2S,5R,6R)-6-(3-chlorophenyl)-5-(4-chlorophenyl)-4-((R)-3-methyl-1-(N-phenylcyclopropanesulfonamido)butan-2-yl)-3-oxomorpholin-2-yl)acetic acid], the IC50 was 32 nM.
Work on `CCC[C@@H](CS(=O)(=O)C(C)(C)C)N1C(=O)[C@@H](CC(=O)O)O[C@H](c2cccc(Cl)c2)[C@H]1c1ccc(Cl)cc1` (single isomer, unassigned) [Example 194, 2-((2R,5R,6R)-4-((S)-1-(tert-butylsulfonyl)pentan-2-yl)-6-(3-chlorophenyl)-5-(4-chlorophenyl)-3-oxomorpholin-2-yl)acetic acid or 2-((2S,5R,6R)-4-((S)-1-(tert-butylsulfonyl)pentan-2-yl)-6-(3-chlorophenyl)-5-(4-chlorophenyl)-3-oxomorpholin-2-yl)acetic acid] yielded an IC50 of 3 nM.
